Laboratory results: patent publication US12565488B2, “Inhibitors of influenza virus replication” (COCRYSTAL PHARMA, INC., priority 2018, dated 2026)
pEC50: −log10 of the molar value.

Test system: Influenza type A (strain A/PR/8/34, ATCC VR-95)
Test: Influenza antiviral assay: inhibition of virus-induced cytopathic effects (CPE) in MDCK cells, XTT dye reduction
Format: cell-based
Conditions: Influenza A virus, H1N1 / PR/8, MDCK, 96 h, Influenza A (H1N1) replication in MDCK cells, CPE reduction by XTT at 4 days post-infection; read-out: Influenza H1N1 affinity, EC50

Row | Structure (SMILES) | pEC50
1 | O=C(O)c1c(O)c(=O)ccn1NC1CCCOc2ccccc21 (centres unmarked) [Compound 1] | 4.00 to 5.00
2 | O=C(O)c1c(O)c(=O)ccn1NC1c2ccccc2COc2ccccc21 (centres unmarked) [Compound 2, 1-((6,11-dihydrodibenzo[b,e]oxepin-11-yl)amino)-3-hydroxy-4-oxo-1,4-dihydropyridine-2-carboxylic acid] | 4.00 to 5.00
3 | O=c1ccn(NC2c3ccccc3COc3ccccc32)cc1O (centres unmarked) [Compound 4] | < 4.00
4 | CN(C)C(=O)c1c(O)c(=O)ccn1NC1c2ccccc2COc2ccccc21 (centres unmarked) [Compound 5] | < 4.00
5 | CN(Cc1ccccc1)C(=O)c1c(O)c(=O)ccn1NC1c2ccccc2COc2ccccc21 (centres unmarked) [Compound 6] | 5.00 to 6.00
6 | O=C(NCCOCCO)c1c(O)c(=O)ccn1NC1CCCNc2ccccc21 (centres unmarked) [Compound 8] | < 4.00
7 | COC(=O)c1c(O)c(=O)ccn1NC1CCCN(Cc2ccc(OC)cc2)c2ccccc21 (centres unmarked) [Compound 9] | < 4.00
8 | CC(C)NC(=O)c1c(O)c(=O)ccn1N(C)C1c2ccccc2COc2ccccc21 (centres unmarked) [Compound 10] | < 4.00
9 | O=C(Nc1ccccc1)c1c(O)c(=O)ccn1NC1c2ccccc2COc2ccccc21 (centres unmarked) [Compound 11] | < 4.00
10 | O=c1ccn(NC2CCOCc3ccccc32)cc1O (centres unmarked) [Compound 12] | < 4.00
11 | O=C(Nc1cccc(C(F)(F)F)c1)c1c(O)c(=O)ccn1NC1c2ccccc2COc2ccccc21 (centres unmarked) [Compound 13, 1-((6,11-dihydrodibenzo[b,e]oxepin-11-yl)amino)-3-hydroxy-4-oxo-N-(3-(trifluoromethyl)phenyl)-1,4-dihydropyridine-2-carboxamide] | 5.00 to 6.00
12 | O=C(NCCOCCO)c1c(O)c(=O)ccn1NC1CCCN(Cc2ccccc2)c2ccccc21 (centres unmarked) [Compound 17] | < 4.00
13 | CN(C1c2ccccc2COc2ccccc21)n1ccc(=O)c(O)c1C(=O)NCc1ccccc1 (centres unmarked) [Compound 18] | < 4.00
14 | O=C(Nc1cccc(O)c1)c1c(O)c(=O)ccn1NC1c2ccccc2COc2ccccc21 (centres unmarked) [Compound 19] | < 4.00
15 | O=C(Nc1ccc(O)cc1)c1c(O)c(=O)ccn1NC1c2ccccc2COc2ccccc21 (centres unmarked) [Compound 20] | < 4.00
16 | O=C(Nc1cccc2ccccc12)c1c(O)c(=O)ccn1NC1c2ccccc2COc2ccccc21 (centres unmarked) [Compound 21] | < 4.00
17 | O=C(NCc1ccc2ccccc2c1)c1c(O)c(=O)ccn1NC1c2ccccc2COc2ccccc21 (centres unmarked) [Compound 22] | 5.00 to 6.00
18 | O=C(NCc1ccc(-c2ccccc2)cc1)c1c(O)c(=O)ccn1NC1c2ccccc2COc2ccccc21 (centres unmarked) [Compound 23, N-(Biphenyl-4-ylmethyl)-1-(6,11-dihydrodibenzo[b,e]oxepin-11-ylamino)-3-hydroxy-4-oxo-1,4-dihydropyridine-2-carboxamide] | 5.00 to 6.00
19 | O=C(NCc1cccc2ccccc12)c1c(O)c(=O)ccn1NC1c2ccccc2COc2ccccc21 (centres unmarked) [Compound 24] | < 4.00
20 | CNC(=O)c1c(O)c(=O)ccn1N(C)C1c2ccccc2COc2ccccc21 (centres unmarked) [Compound 25] | < 4.00
21 | COC(=O)c1c(O)c(=O)ccn1N(Cc1ccccc1)C1c2ccccc2COc2ccccc21 (centres unmarked) [Compound 26] | < 4.00
22 | O=c1ccn(N(Cc2ccccc2)C2c3ccccc3COc3ccccc32)cc1O (centres unmarked) [Compound 27] | < 4.00
23 | CN(C1c2ccccc2COc2ccccc21)n1ccc(=O)c(O)c1 (centres unmarked) [Compound 28] | < 4.00
24 | O=C(NCc1cccc(O)c1)c1c(O)c(=O)ccn1NC1c2ccccc2COc2ccccc21 (centres unmarked) [Compound 29] | < 4.00
25 | O=C(Nc1cccc(-c2ccccc2)c1)c1c(O)c(=O)ccn1NC1c2ccccc2COc2ccccc21 (centres unmarked) [Compound 30] | < 4.00
26 | O=C(NCc1ccc(C(F)(F)F)cc1)c1c(O)c(=O)ccn1NC1c2ccccc2COc2ccccc21 (centres unmarked) [Compound 31] | < 4.00
27 | O=C(NCc1ccc(O)cc1)c1c(O)c(=O)ccn1NC1c2ccccc2COc2ccccc21 (centres unmarked) [Compound 32] | < 4.00
28 | O=C(NCc1cccc(-c2ccccc2)c1)c1c(O)c(=O)ccn1NC1c2ccccc2COc2ccccc21 (centres unmarked) [Compound 33] | < 4.00
29 | CN(C1c2ccccc2COc2ccccc21)n1ccc(=O)c(O)c1C(=O)Nc1ccccc1 (centres unmarked) [Compound 34] | < 4.00
